Converted amounts (≈) assume the structure as drawn.
How the values were obtained:
[1] = tested on: Mtb H37Rv; assay: MIC determination in Mtb H37Rv, Microdilution Alamar Blue Assay (MABA); assay type: cell-based, Mycobacterium tuberculosis; details: Mtb H37Rv, MABA, 7 days
[2] = HEK293T cytotoxicity assay (Cell Titer-Glo); assay type: cell-based; details: human, HEK293T cells; HEK293T, 3 days
Experimental: HEK293T (ATCC) were grown in DMEM (Gibco Cat # 11965-092) supplemented with 10% heat-inactivated FBS, Pen Strep (Gibco) 1X in a 5% CO2 humidified atmosphere at 37◦C. Cells were washed once with DPBS 1X (Gibco), incubated for less than 5 minutes at room temperature in TrypLE solution (Gibco), washed once in propagation medium to remove trypsin, and counted with Trypan Blue. 5 µL of cell suspension ([…]) was dispensed into 1536-well plates containing serial 3-fold drug dilution ranging from 40 µM to 2 nM and incubated for 3 days in a 5% CO2 humidified atmosphere at 37 ◦C. Cell Titer-Glo® Luminescent Cell Viability Assay (Promega) reagent was diluted 1:1 with water and then 2 µL were added to plates. Luminescence was measured in a PHERAStar plate reader (BMG Labtech) and data normalized to negative control (DMSO) minus inhibitor (Puromycin 10 µM). Dose-response curves were fit using the Smart Fit function in Genedata Screener Analyzer (v16.0.8).

[3] = in vitro; details: human
[4] = Mycobacterium tuberculosis, H37RV, 168 h

Row | SMILES | MIC [1, 4] | CC50 at 3 days [2] | CC50 [3] | CC50 at 72 h [2] | CC50 at 72 h [3] | MIC [1]
1 | O=S(=O)(F)Oc1ccc(OCc2c(F)cc(-n3nccn3)cc2F)cc1 [Compound 3 k, 4-((2,6-difluoro-4-(2H-1,2,3-triazol-2-yl)benzyl)oxy)phenyl sulfurofluoridate] | 1.23 µM (≈ 0.474 µg/mL) | > 40 µM | > 40 µM | – | – | –
2 | Cc1nc(C)n(-c2cc(F)c(COc3ccc(OS(=O)(=O)F)cc3)c(F)c2)n1 [Compound 20e, 4-((4-(3,5-dimethyl-1H-1,2,4-triazol-1-yl)-2,6-difluorobenzyl)oxy)phenyl sulfurofluoridate] | 0.23 µM (≈ 0.0951 µg/mL) | – | – | 14.3 µM | 8.1 µM | –
3 | O=S(=O)(F)Oc1ccc(OCc2c(F)cc(-c3ccn[nH]3)cc2F)cc1 [Compound 19c, 4-((2,6-difluoro-4-(1H-pyrazol-5-yl)benzyl)oxy)phenyl sulfurofluoridate] | 0.84 µM (≈ 0.323 µg/mL) | – | – | 31.7 µM | 18.5 µM | –
4 | Cc1ncn(-c2cc(F)c(COc3ccc(OS(=O)(=O)F)cc3)c(F)c2)n1 [Compound 20a, 4-((2,6-difluoro-4-(3-methyl-1H-1,2,4-triazol-1-yl)benzyl)oxy)phenyl sulfurofluoridate] | 0.3 µM (≈ 0.12 µg/mL) | – | – | 17.1 µM | 16.3 µM | –
5 | O=S(=O)(F)Oc1ccc(OCc2ccc(-n3cncn3)c(F)c2F)cc1 [Compound 3f, 4-((2,3-difluoro-4-(1H-1,2,4-triazol-1-yl)benzyl)oxy)phenyl sulfurofluoridate] | 1.25 µM (≈ 0.482 µg/mL) | – | – | 18.8 µM | 22.4 µM | –
6 | O=S(=O)(F)Oc1ccc(OCc2ccc(-n3cncn3)c(F)c2)cc1 [Compound 3e, 4-((3-fluoro-4-(1H-1,2,4-triazol-1-yl)benzyl)oxy)phenyl sulfurofluoridate] | 2.5 µM (≈ 0.918 µg/mL) | – | – | 16.8 µM | 17.6 µM | –
7 | O=S(=O)(F)Oc1ccc(OCc2c(F)cc(-c3ncon3)cc2F)cc1 [Compound 19i, 4-((2,6-difluoro-4-(1,2,4-oxadiazol-3-yl)benzyl)oxy)phenyl sulfurofluoridate] | < 1 µM | > 40 µM | > 40 µM | – | – | 0.62 µM (≈ 0.24 µg/mL)
8 | CC(C)(C)S(=O)(=O)Nc1ncn(-c2cc(F)c(COc3ccc(OS(=O)(=O)F)cc3)c(F)c2)n1 [Compound 21f, 4-((4-(3-((1,1-dimethylethyl)sulfonamido)-1H-1,2,4-triazol-1-yl)-2,6-difluorobenzyl)oxy)phenyl sulfurofluoridate] | 2.5 µM (≈ 1.3 µg/mL) | > 40 µM | > 40 µM | – | – | –
9 | O=S(=O)(F)Oc1ccc(OCc2c(F)cc(-n3ccnn3)cc2F)cc1 [Compound 3 l, 4-((2,6-difluoro-4-(1H-1,2,3-triazol-1-yl)benzyl)oxy)phenyl sulfurofluoridate] | 0.16 µM (≈ 0.0617 µg/mL) | – | – | 27.7 µM | 17 µM | –
10 | N#Cc1cc(-n2cncn2)cc(F)c1COc1ccc(OS(=O)(=O)F)cc1 [Compound 3j, 4-((2-cyano-6-fluoro-4-(1H-1,2,4-triazol-1-yl)benzyl)oxy)phenyl sulfurofluoridate] | 5 µM (≈ 1.96 µg/mL) | > 40 µM | > 40 µM | – | – | 5 µM (≈ 1.96 µg/mL)
11 | O=S(=O)(F)Oc1ccc(OCc2c(F)cc(-c3cnoc3)cc2F)cc1 [Compound 19j, 4-((2,6-difluoro-4-(isoxazol-4-yl)benzyl)oxy)phenyl sulfurofluoridate] | < 1 µM | – | – | 23.8 µM | 6.99 µM | 0.78 µM (≈ 0.301 µg/mL)
12 | NC(=O)c1ncn(-c2cc(F)c(COc3ccc(OS(=O)(=O)F)cc3)c(F)c2)n1 [Compound 20 k, 4-((4-(3-carbamoyl-1H-1,2,4-triazol-1-yl)-2,6-difluorobenzyl)oxy)phenyl sulfurofluoridate] | 0.17 µM (≈ 0.0728 µg/mL) | > 40 µM | > 40 µM | – | – | –
13 | COc1ncn(-c2cc(F)c(COc3ccc(OS(=O)(=O)F)cc3)c(F)c2)n1 [Compound 20f, 4-((2,6-difluoro-4-(3-methoxy-1H-1,2,4-triazol-1-yl)benzyl)oxy)phenyl sulfurofluoridate] | 0.6 µM (≈ 0.249 µg/mL) | > 40 µM | > 40 µM | – | – | –
